Experimental data reported in patent US9429566B2, “Assay for inhibitors of CIP/KIP protein degradation” (UNIVERSITE DE MONTREAL, priority 2011, dated 2016).
Peptide text beside a SMILES is read from it. * marks the point of attachment. Cbz = O=C(OCc1ccccc1)*

Columns and labels:
p21-Rluc fusion protein = experiment: High throughput p21 degradation assay (p21-Rluc reporter, cycloheximide); assay type: cell-based, human; conditions: MG132 25 μM, set at 100% stabilization
endogenous p21 protein = experiment: p21 ELISA of endogenous p21 protein; assay type: cell-based; conditions: dose-response, normalized to DMSO, FIG. 10B
Text: Luciferase values are normalized to the control DMSO (set to 1). […] ELISA values are normalized to the control DMSO.
The p21-Rluc degradation assay was next transposed to a HTS-compatible format in 384-well plates and used to screen the Institut de Recherche en Immunologie et Cancerologie's (IRIC's) collection of 112,900 compounds (FIG. 6) derived from the Chembridge DIVERset™ screening library, the Maybridge Hitfinder™ screening library, the Specs screening library, the Microsource […]™ collection, the Biomol/Enzo Life Sciences Screen-Well™ library, the Prestwick Chemical Library™ library and the Sigma LOPAC^1280™. The potent proteasome inhibitor MG-132 was used as positive control. The mean increase of p21-Rluc signal by all positive controls across the screen was 3.062 (FIG. 6). This value was set at 100% stabilization and used as comparison reference for test compounds. From the primary screen, 686 compounds that increase the p21-Rluc luminescence signal by at least 1.7-fold and 4 SDs above baseline (DMSO control) were identified (FIG. 5). These compounds were re-tested in a reconfirmation experiment using the same assay conditions. […] Confirmed hits were then tested in a secondary assay using Rluc alone to eliminate compounds that increase luciferase enzymatic activity or boost the luminescence signal. […]

In the case of `CC(C)C[C@@H](C=O)NC(=O)[C@H](CC(C)C)NC(=O)[C@H](CC(C)C)NC(=O)OCc1ccccc1` [MG-132] (Cbz-Leu-Leu-Leu-aldehyde), the “mean increase of p21-Rluc signal by all positive controls across the screen” value (p21-Rluc fusion protein) is reported as 3.062 and the “intracellular expression of endogenous p21 protein (ELISA)” value (endogenous p21 protein) is reported as “increase in the intracellular expression of the endogenous protein”.
